Data published in patent US9579406B2, “Phospholipid ether analogs as agents for detecting and locating cancer, and methods thereof” (Cellectar, Inc., priority 2004, dated 2017).
“Also recorded” adds a separate entry of the source.

Legend:
Format in all cases: in vivo
[1] = test system: xenograft and spontaneous tumor models; assay: Imaging and tissue distribution across preclinical animal tumor models
[2] = test system: A549 (human non-small cell lung cancer); assay: Radiotherapy study in A549 SCID mouse xenograft model
Description: Stimulated by these and other observations, the inventors recently conducted a small ^125I-NM404 pilot therapy study in SCID mice with human A549 lung tumor xenografts. ^125I-NM404 was administered as either a single dose or alternatively in 3 doses (once a week for 3 weeks) to groups of 6 mice and a separate cohort received an equivalent mass dose of unlabeled NM404 for comparison. Single doses were 50 or 500 μCi and the repeat dose group received a total of 3 weekly 50 μCi doses. Tumor growth was monitored for 10 weeks following final injection. […] New arms are now being initiated to cover the dose levels between the current ones in order to more accurately evaluate the therapeutic potential of this agent.
A549 (human non-small cell lung cancer, NSCLC, from ATCC) are maintained in Ham's F-12K media supplemented with 10% fetal bovine serum. […]. Animals are given free access to food and water, tumor growth and animal weight are monitored. […].
The tumor model used for this study was A549, a human non-small cell lung cancer, (NSCLC) obtained from ATCC (Manassas, Va.). The tumor cells are maintained in Ham's F-12K media supplemented with 10% fetal bovine serum. […]. Animals are given free access to food and water. Upon reaching 5-10 mm in tumor diameter, mice will be enrolled in the study.
A single intravenous injection of SF404A was performed at Day 0. For the control group, cold compound (C-NM404) has been injected. For treatment groups I-125-NM404 has been injected.
The study contained 5 groups; 4 treatment groups (n=6/group) and 1 control group (n=9). The iodine doses for the treatment groups were 50, 150, 250 and 500 μCi per mouse. The control group was dosed with an equivalent mass amount of C-NM404 (0 μCi).
Assessments were made until 10 weeks post-injection or until no animal in the control group is alive, whatever comes first. […]

[3] = test system: SCC1 and SCC6 squamous cell tumors; assay: SCC1 and SCC6 xenografts in nude mice, single injection
From the text: Due to its 60-day physical half-life and low energy 35 KeV photon emission, iodine-125 is suitable for imaging experiments in mice and rats. Iodine-125 also affords therapeutic characteristics. In one imaging experiment (FIG. 6), 2 nude mice were each inoculated with subcutaneous squamous cell lines SCC1 and SCC6 tumor cell implants on opposing flanks. SCC1 and SSC6 cells were used because one is radiosensitive relative to the other. After 14 days when the average tumor size was approaching 0.5 cm in diameter, one of the mice received 20 μCi of I-125-NM-404 and the other one receive unlabeled NM404 in an equal mass dose. The mouse receiving the unlabeled cold compound had to be euthanized 20 days after injection due to both tumors reaching the termination size limit as defined in the animal use protocol. […] This mouse never did reach terminal tumor size and the mouse was actually euthanized after 90 days in order to collect histology sections.

[4] = Acute GLP toxicology, single iv dose, 14 days observation, rats
Description: Drug vehicle and drug product were provided to Dr. Kostyniak by Dr. Raymond Counsell of the University of Michigan for testing as described in the appended synopses of Study 27 and Study 28. […] This toxicology study was performed under GLP conditions.
This toxicology study was performed under GLP conditions.
The control and test rats were injected intravenously in the lateral tail vein. The rats were injected with the test or control article intravenously at 2 ml/kg of body weight using a 25 gauge needle and a 1-ml syringe. The injections were given by alternating rats from the control group with rats from the test group. The injections were given cautiously over a 30 second to one minute time interval. The injection to control rat #27-01 was given at 9:03 am and last injection to test rat #27-16 was given at 11:01 am.
The rats were observed by LAF personnel for signs of acute toxicity from the time of injection until […]. The rats were weighed five (5) times a week (Monday through Friday) and their body weights, recorded in […]. On Dec. […] A heart puncture was then performed using a 20 gauge needle and a 10 ml syringe to collect the blood samples for the hematological CBC and the clinical blood chemistries. The rats were exsanguinated to cause death. The thymus, heart, lungs, spleen, kidneys, liver, brain, and testes were collected, examined grossly, weighed and sectioned for pathology. The tissue samples (except thymus) were placed in jars of “Z-fix” fixative for histology.
Sixteen (16) Sprague-Dawley rats were received from Harlan-Sprague Dawley, Indianapolis, Ind. […] They were housed at the Laboratory Animal Facility and given food and water ad lib. Each rat was given a two-part number starting with 27 (the study number) and followed by a ‘unique’ number of ‘01’ to ‘16’ (numerical). Each rat was ear punched in the right ear with the unique number of ‘01’ to ‘16’. The control rats were numbered from #27-01 to #27-08 and the test rats were numbered from #27-09 to #27-16. The unique numbers were also applied to each cage indicating which rats were housed within that cage. There were four cages of control rats and four cages of test rats. […] The two groups of eight (8) rats were established by random assignment. The rats were weighed daily until the termination of the study on Day 14.
Safety: On Day 14, the blood samples for both groups will be analyzed for hematology and clinical chemistry. Additionally, the following organs will be removed for pathology report and histology slides: brain, lung, liver, heart, kidney, spleen, and testes. A compilation chart of organ weights with organ/weight ratios for each rat may be compiled.

[5] = male rats, 2 mg/ml at 2 ml/kg iv, 14 days
[6] = male rats, 2 mg/ml at 2 ml/kg iv, day 14

C[N+](C)(C)CCOP(=O)([O-])OCCCCCCCCCCCCCCCCCCc1ccc([125I])cc1 [Compound I-125-NM404]
time over which tumors could be imaged ([1]; mammary and prostate tumors in mice): > 60 days | period of prolonged tumor retention post-injection ([1]; mice): 20 to 60 days | dose relationship of effect on tumor volume ([2]; 50-500 μCi): dose-linear effect | average tumor volume ([2]; 50 μCi (n = 4), week 0): 198 mm^3 | treatment effect on tumor volume ([2]; 50 μCi single injection, 10 weeks): did not show any difference to control animals | average tumor volume ([2]; 50 μCi, week 1): 599 mm^3 | average tumor volume ([2]; 50 μCi, week 2): 691 mm^3 | average tumor volume ([2]; 50 μCi, week 3): 987 mm^3 | average tumor volume ([2]; 50 μCi, week 4): 2283 mm^3 | average tumor volume ([2]; 50 μCi, week 5): 3977 mm^3 | average tumor volume ([2]; 50 μCi, week 6): 4951 mm^3 | average tumor volume ([2]; 50 μCi, week 7): 6999 mm^3 | average tumor volume ([2]; 50 μCi, week 8): 8188 mm^3 | average tumor volume ([2]; 50 μCi, week 9): 9978 mm^3 | average tumor volume ([2]; 50 μCi, week 10): 8342 mm^3 | tumor growth ([2]; 150 microCi, large tumors (>1 cm)): did not show any effects | tumor growth ([2]; 150 microCi, small tumors (<1 cm)): stunned tumor growth | average tumor volume ([2]; 150 μCi (n = 5), week 0): 1699 mm^3 | average tumor volume ([2]; 150 μCi, week 1): 1847 mm^3 | average tumor volume ([2]; 150 μCi, week 2): 2430 mm^3 | average tumor volume ([2]; 150 μCi, week 3): 2758 mm^3 | average tumor volume ([2]; 150 μCi, week 4): 4144 mm^3 | average tumor volume ([2]; 150 μCi, week 5): 4478 mm^3 | average tumor volume ([2]; 150 μCi, week 6): 4668 mm^3 | average tumor volume ([2]; 150 μCi, week 7): 4817 mm^3 | average tumor volume ([2]; 150 μCi, week 8): 6049 mm^3 | average tumor volume ([2]; 150 μCi, week 9): 7780 mm^3 | average tumor volume ([2]; 150 μCi, week 10): 6894 mm^3 | average tumor volume ([2]; 250 μCi (n = 6), week 0): 360 mm^3 | treatment effect on tumor volume ([2]; 250 μCi single injection): substantial and prolonged treatment effect | effect on the tumor ([2]; 250 μCi, 4 weeks following injection): causes central necrosis | average tumor volume ([2]; 250 μCi, week 2): 756 mm^3 | average tumor volume ([2]; 250 μCi, week 3): 821 mm^3 | average tumor volume ([2]; 500 μCi (n = 5), week 0): 1041 mm^3 | signs of toxicity ([2]; 500 μCi dose): none of the mice showed any signs of toxicity | treatment effect on tumor volume ([2]; 500 μCi single injection): substantial and prolonged treatment effect | average tumor volume ([2]; 500 μCi, week 1): 964 mm^3 | average tumor volume ([2]; 500 μCi, week 2): 1281 mm^3 | average tumor volume ([2]; 500 μCi, week 3): 1110 mm^3 | average tumor volume ([2]; 500 μCi, week 4): 1300 mm^3 | average tumor volume ([2]; 500 μCi, week 5): 1626 mm^3 | average tumor volume ([2]; 500 μCi, week 6): 1735 mm^3 | average tumor volume ([2]; 500 μCi, week 7): 1697 mm^3 | tumor growth ([2]; pilot study, single 500 μCi dose): significant regression in tumor growth | tumor response ([3]; single injection 20 μCi, listed as 125I-NM404): regressed significantly; also recorded: regressed dramatically; also recorded: significantly reduced

C[N+](C)(C)CCOP(=O)([O-])OCCCCCCCCCCCCCCCCCCc1ccc(I)cc1 [NM-404, 18-(4-iodophenyl)-octadecylphosphocholine]
uptake of injected dose into the tumor tissue ([1]; in vivo): 10-25% | localization in infectious / inflammatory sites ([1]; preclinical models): does not localize in infectious sites; also recorded: is not retained in inflammatory tissues | retention in normal, premalignant or hyperplastic tissues ([1]; preclinical models): is not retained in normal, premalignant, or hyperplastic tissues | effect on tumor growth ([2]; 0 μCi, equivalent mass dose, 10 weeks): no substantial effect on tumors growth | therapy effect of fractionated dosing versus single dose ([2]; 3×50 micro-Ci versus single 150 micro-Ci): produced the same therapy effect | average tumor volume ([2]; Control 0 μCi (n = 7), week 0): 1152 mm^3 | average tumor volume ([2]; Control 0 μCi, week 1): 1289 mm^3 | average tumor volume ([2]; Control 0 μCi, week 2): 1667 mm^3 | average tumor volume ([2]; Control 0 μCi, week 3): 2418 mm^3 | average tumor volume ([2]; Control 0 μCi, week 4): 3169 mm^3 | average tumor volume ([2]; Control 0 μCi, week 5): 3763 mm^3 | average tumor volume ([2]; Control 0 μCi, week 6): 4971 mm^3 | average tumor volume ([2]; Control 0 μCi, week 7): 6207 mm^3 | average tumor volume ([2]; Control 0 μCi, week 8): 6253 mm^3 | average tumor volume ([2]; Control 0 μCi, week 9): 7175 mm^3 | average tumor volume ([2]; Control 0 μCi, week 10): 7068 mm^3 | acute toxicologic effects (conclusion) [4, 5]: No acute toxicologic effects attributable to the test article had been found | behavior [4, 5]: No unusual behavior was noted | mean body weights, test versus control group [4, 5]: not significantly different | tail vein injection site reactions [4, 5]: no adverse tissue reactions were noted | clinical blood chemistries and hematology, t-test versus control [4, 6]: no significant differences found | gross examination of tissues [4, 6]: No gross lesions were noted | histopathology of organs [4, 6]: no changes in the histopathology of the organs examined that can be attributed to the administration of the test material | toxic effects ([4]; male rats, 4 mg/kg (Study 27)): no significant toxic effects were noted | acute toxicity ([4]; unlabeled, 1200 times the anticipated imaging mass dose): no acute toxicities were found | time to euthanasia due to both tumors reaching termination size limit ([3]; unlabeled, equal mass dose): 20 days
